Columns and labels:
NLRP3 [1] = target: T1, NLRP3 (Homo sapiens, UniProt Q96P20); assay: Human whole blood IL1β release assay; format: cell-based; details: LPS 1 μg/ml, nigericin 10 μM, IL-1β AlphaLisa, 10 μM top dose (Example 2: top dose of 30 μM), read-out: HWB IC50
Outline: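 Healthy-donor heparinised human whole blood with 1 μg/ml LPS, compound (8-point half-log dilution, 10 μM top dose unless stated; 0.1% DMSO vehicle) for 3 h at 37 °C, then nigericin 10 μM final for 1 h. Supernatant IL-1β by AlphaLISA; IC50 from 4-parameter variable-slope fit.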

[2] = PK, intravenous administration; format: in vivo; details: rat, plasma, male Sprague Dawley rats, dose about 1 mg/kg; for Vd: read-out: Vdss
Description: Pharmacokinetic parameters were determined in male Sprague Dawley rats (Vital River Laboratory Animal Technology Co Ltd, Beijing, China, 6-9 weeks old). Animals were maintained under a 12 h light/dark cycle. Animals had free access to food and water, except that orally dosed animals were food deprived overnight prior to the study.
For intravenous administration, compounds were formulated as a solution (in DMSO:water [10:90] or in DMSO:PBS [10:90]) in 2 mL/kg dosing volume and administered via tail vein. For oral administration, compounds were formulated as a solution (in 0.5% methylcellulose in water) in […] dosing volume and administered orally.
Serial blood samples (about 200 μL) were taken from each animal at each of 8 time-points post dose ([…], 0.25, 0.5, 1, 2, 4, 8 and 24 h). Samples were held on ice for no longer than 30 minutes before centrifugation (5,696 rpm (3,000 g) for 15 minutes) for plasma generation. Plasma was frozen on dry ice prior to bioanalysis. PK parameters were generated from LC-MS/MS data using Phoenix WinNonlin 6.3 software.

NLRP3 [3] = target: T1, NLRP3; assay: THP-1 cells pyroptosis assay; format: cell-based; design: Seed THP-1 cells (25,000 cells/well) containing 1.0 μg/ml LPS; host or cells: THP-1; details: LPS 1.0 μg/ml, nigericin 5 μM, resazurin readout, 10 μM top dose (Example 2: top dose of 30 μM)
Outline: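 THP-1 cells (25,000/well) primed with 1 μg/ml LPS in serum-free RPMI, treated with compound (8-point dilution, 10 μM top unless stated; 0.1% DMSO) 3 h at 37°C, then nigericin 5 μM 1 h. Viability read by resazurin (100 μM, 1-2 h) fluorescence; IC50 from 4-parameter fit.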

T1 sequence (Q96P20 whole entry): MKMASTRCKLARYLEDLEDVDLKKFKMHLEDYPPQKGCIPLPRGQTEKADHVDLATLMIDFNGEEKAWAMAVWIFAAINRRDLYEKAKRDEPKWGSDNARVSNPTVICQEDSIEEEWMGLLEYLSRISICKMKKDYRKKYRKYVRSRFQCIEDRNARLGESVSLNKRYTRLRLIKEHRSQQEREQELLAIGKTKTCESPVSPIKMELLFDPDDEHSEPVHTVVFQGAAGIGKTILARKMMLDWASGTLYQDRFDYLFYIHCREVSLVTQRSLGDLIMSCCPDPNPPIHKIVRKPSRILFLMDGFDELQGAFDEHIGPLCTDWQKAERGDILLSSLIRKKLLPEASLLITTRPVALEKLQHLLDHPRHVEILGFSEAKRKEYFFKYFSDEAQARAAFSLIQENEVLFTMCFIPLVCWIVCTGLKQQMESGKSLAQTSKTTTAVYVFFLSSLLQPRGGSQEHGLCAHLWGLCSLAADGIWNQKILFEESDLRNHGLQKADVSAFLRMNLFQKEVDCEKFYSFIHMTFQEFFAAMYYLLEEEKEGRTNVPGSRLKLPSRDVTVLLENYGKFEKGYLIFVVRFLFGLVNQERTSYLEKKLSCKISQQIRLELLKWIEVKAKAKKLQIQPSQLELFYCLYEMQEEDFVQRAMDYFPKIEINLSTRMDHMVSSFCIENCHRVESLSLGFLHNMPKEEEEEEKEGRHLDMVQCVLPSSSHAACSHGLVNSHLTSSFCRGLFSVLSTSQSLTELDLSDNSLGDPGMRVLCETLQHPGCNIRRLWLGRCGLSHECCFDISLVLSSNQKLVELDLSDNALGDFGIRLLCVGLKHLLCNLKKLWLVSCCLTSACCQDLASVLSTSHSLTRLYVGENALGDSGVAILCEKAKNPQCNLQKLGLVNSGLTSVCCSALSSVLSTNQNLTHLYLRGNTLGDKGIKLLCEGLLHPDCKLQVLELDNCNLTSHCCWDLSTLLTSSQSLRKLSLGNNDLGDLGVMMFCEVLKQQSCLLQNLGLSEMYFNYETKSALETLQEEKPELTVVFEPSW

SMILES	IC50 (NLRP3 [1])	AUC [2]	clearance [2]	half-life [2]	Vd [2]	IC50 (NLRP3 [3])
CC(C)N1CC(S(=O)(=O)c2nnc(Nc3c4c(cc5c3CCC5)CCC4)[nH]2)C1 [Example 22, N-(1,2,3,5,6,7-hexahydro-s-indacen-4-yl)-5-((1-isopropylazetidin-3-yl)sulfonyl)-4H-1,2,4-triazol-3-amine]	≤ 10000 nM	364 ng·h/mL	45.8 mL/min/kg	0.4 h	1.09 L/kg	≤ 5000 nM
CCN(CC)CCCS(=O)(=O)c1nnc(Nc2c3c(cc4c2CCC4)CCC3)[nH]1 [Example 24, 5-((3-(diethylamino)propyl)sulfonyl)-N-(1,2,3,5,6,7-hexahydro-s-indacen-4-yl)-4H-1,2,4-triazol-3-amine]	≤ 1000 nM	173 ng·h/mL	96.5 mL/min/kg	0.8 h	5.26 L/kg	≤ 500 nM
COc1cc(-c2cc(F)cc(C(C)C)c2Nc2nnc(S(=O)(=O)c3ccccc3)[nH]2)ccn1 [Example 45, N-(4-fluoro-2-isopropyl-6-(2-methoxypyridin-4-yl)phenyl)-3-(phenylsulfonyl)-1H-1,2,4-triazol-5-amine]	≤ 5000 nM	545 ng·h/mL	30.6 mL/min/kg	1.2 h	1.59 L/kg	≤ 5000 nM
CN(C)CCCS(=O)(=O)c1nnc(Nc2c3c(cc4c2CCC4)CCC3)[nH]1 [Example 48, 5-((3-(Dimethylamino)propyl)sulfonyl)-N-(1,2,3,5,6,7-hexahydro-s-indacen-4-yl)-4H-1,2,4-triazol-3-amine]	≤ 500 nM	196 ng·h/mL	85 mL/min/kg	0.8 h	3.69 L/kg	≤ 500 nM
O=S(=O)(CCCN1CCCC1)c1nnc(Nc2c3c(cc4c2CCC4)CCC3)[nH]1 [Example 49, N-(1,2,3,5,6,7-hexahydro-s-indacen-4-yl)-5-((3-(pyrrolidin-1-yl)propyl)sulfonyl)-4H-1,2,4-triazol-3-amine]	≤ 1000 nM	168 ng·h/mL	98.9 mL/min/kg	2.1 h	8.08 L/kg	≤ 500 nM
CNCCCS(=O)(=O)c1nnc(Nc2c3c(cc4c2CCC4)CCC3)[nH]1 [Example 54, N-(1,2,3,5,6,7-hexahydro-s-indacen-4-yl)-5-((3-(methylamino)propyl)sulfonyl)-4H-1,2,4-triazol-3-amine]	≤ 10000 nM	273 ng·h/mL	61.1 mL/min/kg	1.3 h	2.7 L/kg	≤ 1000 nM
CN1CCCC1CCS(=O)(=O)c1nnc(Nc2c3c(cc4c2CCC4)CCC3)[nH]1 (stereo not drawn) [Example 60, N-(1,2,3,5,6,7-hexahydro-s-indacen-4-yl)-3-((2-(1-methylpyrrolidin-2-yl)ethyl)sulfonyl)-1H-1,2,4-triazol-5-amine]	≤ 5000 nM	278 ng·h/mL	60 mL/min/kg	1 h	3.24 L/kg	≤ 1000 nM
COc1cc(-c2ccc3c(c2Nc2nnc(S(=O)(=O)c4cccc(CN(C)C)c4)[nH]2)CCC3)ccn1 [Example 329, 5-((3-((dimethylamino)methyl)-phenyl)sulfonyl)-N-(5-(2-methoxypyridin-4-yl)-2,3-dihydro-1H-inden-4-yl)-4H-1,2,4-triazol-3-amine]	≤ 5000 nM					≤ 500 nM
CC(C)(O)[C@@H]1CCN(S(=O)(=O)c2nnc(Nc3c4c(cc5c3CCC5)CCC4)[nH]2)C1 [Example 330, (R)-2-(1-((5-((1,2,3,5,6,7-hexahydro-s-indacen-4-yl)amino)-4H-1,2,4-triazol-3-yl)sulfonyl)pyrrolidin-3-yl)propan-2-ol]	≤ 10000 nM					≤ 1000 nM
CN1CC2(CC1=O)CN(S(=O)(=O)c1nnc(Nc3c4c(cc5c3CCC5)CCC4)[nH]1)C2 [Example 331, 2-((5-((1,2,3,5,6,7-hexahydro-s-indacen-4-yl)amino)-4H-1,2,4-triazol-3-yl)sulfonyl)-6-methyl-2,6-diazaspiro[3.4]octan-7-one]	≤ 5000 nM					≤ 5000 nM
COc1cc(-c2ccc3c(c2Nc2nnc(S(=O)(=O)c4ccn(C)n4)[nH]2)CCC3)ccn1 [Example 339, N-(5-(2-methoxypyridin-4-yl)-2,3-dihydro-1H-inden-4-yl)-5-((1-methyl-1H-pyrazol-3-yl)sulfonyl)-4H-1,2,4-triazol-3-amine]	≤ 5000 nM					≤ 1000 nM
NC(=O)c1cccc(S(=O)(=O)c2nnc(Nc3c4c(cc5c3CCC5)CCC4)[nH]2)c1 [Example 341, 3-((5-((1,2,3,5,6,7-hexahydro-s-indacen-4-yl)amino)-4H-1,2,4-triazol-3-yl)sulfonyl)benzamide]	≤ 10000 nM					≤ 500 nM
[2H]C([2H])([2H])Oc1cc(-c2ccc3c(c2Nc2nnc(S(=O)(=O)N4CC[C@H](C(C)(C)O)C4)[nH]2)CCO3)ccn1 [Example 343, (S)-2-(1-((5-((5-(2-(methoxy-d3)pyridin-4-yl)-2,3-dihydrobenzofuran-4-yl)amino)-4H-1,2,4-triazol-3-yl)sulfonyl)pyrrolidin-3-yl)propan-2-ol]	≤ 1000 nM					≤ 500 nM
[2H]C([2H])([2H])Oc1cc(-c2ccc3c(c2Nc2nnc(S(=O)(=O)N4CC[C@H](C(C)(C)O)C4)[nH]2)CCC3)ccn1 [Example 344, (S)-2-(1-((5-((5-(2-(methoxy-d3)pyridin-4-yl)-2,3-dihydro-1H-inden-4-yl)amino)-4H-1,2,4-triazol-3-yl)sulfonyl)pyrrolidin-3-yl)propan-2-ol]	≤ 5000 nM					≤ 500 nM
O=S(=O)(c1nnc(Nc2c3c(cc4c2CCC4)CCC3)[nH]1)N1CC[C@H](C2(O)CC2)C1 [Example 345, (S)-1-(1-((5-((1,2,3,5,6,7-hexahydro-s-indacen-4-yl)amino)-4H-1,2,4-triazol-3-yl)sulfonyl)pyrrolidin-3-yl)cyclopropanol]	≤ 10000 nM					≤ 1000 nM
O=S(=O)(c1nnc(Nc2c3c(cc4c2CCC4)CCC3)[nH]1)N1CC2(CCC(O)C2)C1 (stereo not drawn) [Example 346, 2-((5-((1,2,3,5,6,7-hexahydro-s-indacen-4-yl)amino)-4H-1,2,4-triazol-3-yl)sulfonyl)-2-azaspiro[3.4]octan-6-ol]	≤ 5000 nM					≤ 1000 nM
COC(C)(C)[C@H]1CCN(S(=O)(=O)c2nnc(Nc3c4c(cc5c3CCC5)CCC4)[nH]2)C1 [Example 347, (S)-N-(1,2,3,5,6,7-hexahydro-s-indacen-4-yl)-5-((3-(2-methoxypropan-2-yl)pyrrolidin-1-yl)sulfonyl)-4H-1,2,4-triazol-3-amine]	≤ 10000 nM					≤ 1000 nM
CN(C)CCn1ccc(S(=O)(=O)c2nnc(Nc3c4c(cc5c3CCC5)CCC4)[nH]2)n1 [Example 349, 5-((1-(2-(dimethylamino)ethyl)-1H-pyrazol-3-yl)sulfonyl)-N-(1,2,3,5,6,7-hexahydro-s-indacen-4-yl)-4H-1,2,4-triazol-3-amine]	≤ 5000 nM					≤ 500 nM
CC(O)Cn1ccc(S(=O)(=O)c2nnc(Nc3c4c(cc5c3CCC5)CCC4)[nH]2)n1 (stereo not drawn) [Example 352, 1-(3-((5-((1,2,3,5,6,7-hexahydro-s-indacen-4-yl)amino)-4H-1,2,4-triazol-3-yl)sulfonyl)-1H-pyrazol-1-yl)propan-2-ol]	≤ 10000 nM					≤ 500 nM
O=S(=O)(c1nnc(Nc2c3c(cc4c2CCC4)CCC3)[nH]1)N1CCC2(CCOC2)CC1 [Example 360, 5-((2-oxa-8-azaspiro[4.5]decan-8-yl)sulfonyl)-N-(1,2,3,5,6,7-hexahydro-s-indacen-4-yl)-4H-1,2,4-triazol-3-amine]	≤ 5000 nM					≤ 500 nM
NS(=O)(=O)c1ccc(S(=O)(=O)c2nnc(Nc3c4c(cc5c3CCC5)CCC4)[nH]2)cc1 [Example 366, 4-((5-((1,2,3,5,6,7-hexahydro-s-indacen-4-yl)amino)-4H-1,2,4-triazol-3-yl)sulfonyl)benzenesulfonamide]	≤ 10000 nM					≤ 500 nM
Cc1cc2c(c(Nc3nnc(S(=O)(=O)c4ccccc4)[nH]3)c1-c1ccnc(OC3CCOCC3)c1)CCC2 [Example 370, N-(6-methyl-5-(2-((tetrahydro-2H-pyran-4-yl)oxy)pyridin-4-yl)-2,3-dihydro-1H-inden-4-yl)-5-(phenylsulfonyl)-4H-1,2,4-triazol-3-amine]	≤ 5000 nM					≤ 500 nM

Source: US20210261512A1, “NOVEL COMPOUNDS” (INFLAZOME LIMITED, priority 2018, published 2021)
